In assay [1] the test system is pre-diabetes. The following applies: metformin therapy, background statement; cited from earlier work.
In assay [2] the test system is models of insulin resistance. The assay is described as follows: Deuterated water production from deuterated glucose in models of insulin resistance, response to insulin-sensitizing therapies. The assay is classed as in vivo. The following applies: response to administration of insulin-sensitizing therapies in models of insulin resistance. From the text: Accordingly, the maintenance of normal absolute heavy water production in the face of insulin resistance was highly informative—“normal” heavy water production in this setting represented sufficiency (adequacy) of the pancreatic beta-cell response to the insulin resistance present. […] Full characterization of DM2 susceptibility and progression is thereby enabled through a simple, easily performed and widely usable test.

Regarding `CN(C)C(=N)N=C(N)N` [metformin], in assay [1], the pancreatic insulin secretion entry is on record as “improve pancreatic insulin secretion” and the “progression to DM2” value is given as “prevent progression to DM2”. For the same molecule, the deuterated water production result in assay [2] is “increased”.

The values above are taken from patent publication US8741589B2, “Monitoring two dimensions of diabetes pathogenesis” (The Regents of the University of California, priority 2005, dated 2014).
